Experimental data from US7875647B2, “Heteroaryl-pyrazole derivatives as cannabinoid CB1 receptor antagonists” (Green Cross Corporation, priority 2006, dated 2011).
Read-outs that look alike come from different tables or passages of the source.

Target: T1, Cannabinoid-1 receptor (CB1R) (Rattus norvegicus, UniProt P20272)
T1 construct: The tissue obtained from the brain of SD rats was homogenized; from tissue; host or cells: brain of SD rats (membrane pellet of the homogenate)
Test: Cannabinoid-1 receptor (CB1R) binding affinity assay ([3H]CP-55940, rat CB-1 receptor binding protocol)
Conditions: brain tissue of SD rats, [3H]CP-55940, 30° C. 60 min

T1 sequence (P20272 whole entry): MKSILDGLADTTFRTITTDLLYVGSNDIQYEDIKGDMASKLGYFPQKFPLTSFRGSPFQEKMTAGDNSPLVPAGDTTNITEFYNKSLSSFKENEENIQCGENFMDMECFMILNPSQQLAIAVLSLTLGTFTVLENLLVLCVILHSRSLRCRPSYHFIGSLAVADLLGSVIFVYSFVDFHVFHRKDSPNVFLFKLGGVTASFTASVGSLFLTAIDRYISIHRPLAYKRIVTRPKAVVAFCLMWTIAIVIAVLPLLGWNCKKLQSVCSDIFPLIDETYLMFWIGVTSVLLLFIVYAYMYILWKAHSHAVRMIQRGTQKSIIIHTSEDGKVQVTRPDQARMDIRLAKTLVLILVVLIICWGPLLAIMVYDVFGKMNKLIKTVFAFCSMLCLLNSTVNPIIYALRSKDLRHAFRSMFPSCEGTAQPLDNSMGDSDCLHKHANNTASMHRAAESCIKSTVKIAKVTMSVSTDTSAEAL

| Structure (SMILES) | IC50 (read-out: IC50) | IC50 (IC50(nM)) |
| --- | --- | --- |
| Cc1c(-c2nnc(C3(C)CC3)o2)nn(-c2ccc(Cl)cc2Cl)c1-c1ccc(Cl)cc1 [Example 275, 2-(5-(4-chlorophenyl)-1-(2,4-dichlorophenyl)-4-methyl-1H-pyrazol-3-yl)-5-(1-methylcyclopropyl)-1,3,4-oxadiazole] | 14.7 nM | – |
| CCc1c(-c2nnc(C3(C)CC3)o2)nn(-c2ccc(Cl)cc2Cl)c1-c1ccc(Br)cc1 [Example 276, 2-(5-(4-bromophenyl)-1-(2,4-dichlorophenyl)-4-ethyl-1H-pyrazol-3-yl)-5-(1-methylcyclopropyl)-1,3,4-oxadiazole] | 13 nM | – |
| CCC1(c2nnc(-c3nn(-c4ccc(Cl)cc4Cl)c(-c4ccc(Cl)cc4)c3C)o2)CC1 [Example 277, 2-(5-(4-chlorophenyl)-1-(2,4-dichlorophenyl)-4-methyl-1H-pyrazol-3-yl)-5-(1-ethylcyclopropyl)-1,3,4-oxadiazole] | 12.6 nM | – |
| CCc1c(-c2nnc(C3(CC)CC3)o2)nn(-c2ccc(Cl)cc2Cl)c1-c1ccc(Cl)cc1 [Example 278, 2-(5-(4-chlorophenyl)-1-(2,4-dichlorophenyl)-4-ethyl-1H-pyrazol-3-yl)-5-(1-ethylcyclopropyl)-1,3,4-oxadiazole] | 17.1 nM | – |
| CCc1c(-c2nnc(C3(CC)CC3)o2)nn(-c2ccc(Cl)cc2Cl)c1-c1ccc(Br)cc1 [Example 279, 2-(5-(4-bromophenyl)-1-(2,4-dichlorophenyl)-4-ethyl-1H-pyrazol-3-yl)-5-(1-ethylcyclopropyl)-1,3,4-oxadiazole] | – | 12.8 nM |
| Cc1c(-c2nnc(C3(Cc4ccc(Cl)cc4)CC3)o2)nn(-c2ccc(Cl)cc2Cl)c1-c1ccc(Cl)cc1 [Example 280, 2-(1-(4-chlorobenzyl)cyclopropyl)-5-(5-(4-chlorophenyl)-1-(2,4-dichlorophenyl)-4-methyl-1H-pyrazol-3-yl)-1,3,4-oxadiazole] | 11.7 nM | – |
| CCc1c(-c2nnc(C3(Cc4ccc(Cl)cc4)CC3)o2)nn(-c2ccc(Cl)cc2Cl)c1-c1ccc(Br)cc1 [Example 281, 2-(1-(4-chlorobenzyl)cyclopropyl)-5-(5-(4-bromophenyl)-1-(2,4-dichlorophenyl)-4-ethyl-1H-pyrazol-3-yl)-1,3,4-oxadiazole] | 6.21 nM | – |
| CCc1c(-c2nnc(C3(c4ccccc4F)CC3)o2)nn(-c2ccc(Cl)cc2Cl)c1-c1ccc(Cl)cc1 [Example 282, 2-(5-(4-chlorophenyl)-1-(2,4-dichlorophenyl)-4-ethyl-1H-pyrazol-3-yl)-5-(1-(2-fluorophenyl)cyclopropyl)-1,3,4-oxadiazole] | 4.08 nM | – |
| CCc1c(-c2nnc(C3(C)CC3)o2)nn(-c2ccc(Cl)cc2Cl)c1-c1ccc(Cl)cc1 [Example 283, 2-(5-(4-chlorophenyl)-1-(2,4-dichlorophenyl)-4-ethyl-1H-pyrazol-3-yl)-5-(1-methylcyclopropyl)-1,3,4-oxadiazole] | 11 nM | – |
| CC(=O)C1(c2nnc(-c3nn(-c4ccc(Cl)cc4Cl)c(-c4ccc(Cl)cc4)c3C)o2)CC1 [Example 286, 1-(1-(5-(5-(4-chlorophenyl)-1-(2,4-dichlorophenyl)-4-methyl-1H-pyrazol-3-yl)-1,3,4-oxadiazol-2-yl)cyclopropyl)ethanone] | 9.36 nM | – |
| Cc1c(-c2nnc(C3(C(C)(C)O)CC3)o2)nn(-c2ccc(Cl)cc2Cl)c1-c1ccc(Cl)cc1 [Example 287, 2-(1-(5-(5-(4-chlorophenyl)-1-(2,4-dichlorophenyl)-4-methyl-1H-pyrazol-3-yl)-1,3,4-oxadiazol-2-yl)cyclopropyl)propan-2-ol] | 34.9 nM | – |
| Cc1c(-c2nnc(C3(C(C)O)CC3)o2)nn(-c2ccc(Cl)cc2Cl)c1-c1ccc(Cl)cc1 (stereo not shown) [Example 288, 1-(1-(5-(5-(4-chlorophenyl)-1-(2,4-dichlorophenyl)-4-methyl-1H-pyrazol-3-yl)-1,3,4-oxadiazol-2-yl)cyclopropyl)ethanol] | 60.2 nM | – |
| CCN(C)Cc1c(-c2nnc(C(C)(C)C)o2)nn(-c2ccc(Cl)cc2Cl)c1-c1ccc(Cl)cc1 [Example 290, N-((3-(5-tert-butyl-1,3,4-oxadiazol-2-yl)-5-(4-chlorophenyl)-1-(2,4-dichlorophenyl)-1H-pyrazol-4-yl)methyl)-N-methylethanamine] | 227 nM | – |
| CC(C)(C)c1nnc(-c2nn(-c3ccc(Cl)cc3Cl)c(-c3ccc(Cl)cc3)c2CN2CCCCC2)o1 [Example 291, 2-tert-butyl-5-(5-(4-chlorophenyl)-1-(2,4-dichlorophenyl)-4-(piperidin-1-ylmethyl)-1H-pyrazol-3-yl)-1,3,4-oxadiazole] | 45.7 nM | – |
| CC(C)(C)c1nnc(-c2nn(-c3ccc(Cl)cc3Cl)c(-c3ccc(Cl)cc3)c2CN2CCOCC2)o1 [Example 293, 4-((3-(5-tert-butyl-1,3,4-oxadiazol-2-yl)-5-(4-chlorophenyl)-1-(2,4-dichlorophenyl)-1H-pyrazol-4-yl)methyl)morpholine] | 135 nM | – |
| CC(C)NCc1c(-c2nnc(C(C)(C)C)o2)nn(-c2ccc(Cl)cc2Cl)c1-c1ccc(Cl)cc1 [Example 295, N-((3-(5-tert-butyl-1,3,4-oxadiazol-2-yl)-5-(4-chlorophenyl)-1-(2,4-dichlorophenyl)-1H-pyrazol-4-yl)methyl)propan-2-amine] | 41.5 nM | – |

| Structure (SMILES) | IC50 (read-out: IC50) | IC50 (IC50(nM)) |
| --- | --- | --- |
| CC(C)(C)c1nnc(-c2nn(-c3ccc(Cl)cc3Cl)c(-c3ccc(Cl)cc3)c2Cn2cncn2)o1 [Example 296, 2-(4-((1H-1,2,4-triazol-1-yl)methyl)-5-(4-chlorophenyl)-1-(2,4-dichlorophenyl)-1H-pyrazol-3-yl)-5-tert-butyl-1,3,4-oxadiazole] | 2.36 nM | – |
| CC(C)(C)c1nnc(-c2nn(-c3ccc(Cl)cc3Cl)c(-c3ccc(Cl)cc3)c2Cn2ccnc2)o1 [Example 297, 2-(4-((1H-imidazol-1-yl)methyl)-5-(4-chlorophenyl)-1-(2,4-dichlorophenyl)-1H-pyrazol-3-yl)-5-tert-butyl-1,3,4-oxadiazole] | 18.7 nM | – |
| CC(C)(C)c1nnc(-c2nn(-c3ccc(Cl)cc3Cl)c(-c3ccc(Cl)cc3)c2Cn2cccn2)o1 [Example 298, 2-(4-((1H-pyrazol-1-yl)methyl)-5-(4-chlorophenyl)-1-(2,4-dichlorophenyl)-1H-pyrazol-3-yl)-5-tert-butyl-1,3,4-oxadiazole] | 20.5 nM | – |
| CC(C)(C)c1nnc(-c2nn(-c3ccc(Cl)cc3Cl)c(-c3ccc(Cl)cc3)c2Cn2cccc2)o1 [Example 299, 2-(4-((1H-pyrrol-1-yl)methyl)-5-(4-chlorophenyl)-1-(2,4-dichlorophenyl)-1H-pyrazol-3-yl)-5-tert-butyl-1,3,4-oxadiazole] | 38.4 nM | – |
| CC(C)(C)c1nnc(-c2nn(-c3ccc(Cl)cc3Cl)c(-c3ccc(Cl)cc3)c2Cn2cnnn2)o1 [Example 300, 2-(4-((1H-tetrazol-1-yl)methyl)-5-(4-chlorophenyl)-1-(2,4-dichlorophenyl)-1H-pyrazol-3-yl)-5-tert-butyl-1,3,4-oxadiazole] | 3.37 nM | – |
| CC(C)(C)c1nnc(-c2nn(-c3ccc(Cl)cc3Cl)c(-c3ccc(Cl)cc3)c2Cn2cnnn2)o1 [Example 301, 2-(4-((1H-tetrazol-1-yl)methyl)-5-(4-chlorophenyl)-1-(2,4-dichlorophenyl)-1H-pyrazol-3-yl)-5-tert-butyl-1,3,4-oxadiazole] | 7.64 nM | – |
| CC(C)(C)c1nnc(-c2nn(-c3ccc(Cl)cc3Cl)c(-c3ccc(Br)cc3)c2Cn2ncnn2)o1 [Example 302, 2-(4-((2H-tetrazol-2-yl)methyl)-5-(4-bromophenyl)-1-(2,4-dichlorophenyl)-1H-pyrazol-3-yl)-5-tert-butyl-1,3,4-oxadiazole] | 6.44 nM | – |
| CC(C)(C)c1nnc(-c2nn(-c3ccc(Cl)cc3Cl)c(-c3ccc(Br)cc3)c2Cn2cnnn2)o1 [Example 303, 2-(4-((1H-tetrazol-1-yl)methyl)-5-(4-bromophenyl)-1-(2,4-dichlorophenyl)-1H-pyrazol-3-yl)-5-tert-butyl-1,3,4-oxadiazole] | 12 nM | – |
| CC(C)(C)c1nnc(-c2nn(-c3ccc(Cl)cc3Cl)c(-c3ccc(Cl)cc3)c2Cn2ccnn2)o1 [Example 304, 2-(4-((1H-1,2,3-triazol-1-yl)methyl)-5-(4-chlorophenyl)-1-(2,4-dichlorophenyl)-1H-pyrazol-3-yl)-5-tert-butyl-1,3,4-oxadiazole] | 12.8 nM | – |
| CC(C)(C)c1nnc(-c2nn(-c3ccc(Cl)cc3Cl)c(-c3ccc(Cl)cc3)c2CN2C(=O)CCC2=O)o1 [Example 305, 1-((3-(5-tert-butyl-1,3,4-oxadiazol-2-yl)-5-(4-chlorophenyl)-1-(2,4-dichlorophenyl)-1H-pyrazol-4-yl)methyl)pyrrolidine-2,5-dione] | 287 nM | – |
| CC(C)(C)c1nnc(-c2nn(-c3ccc(Cl)cc3Cl)c(-c3ccc(Cl)cc3)c2CN2CCCC2=O)o1 [Example 306, 1-((3-(5-tert-butyl-1,3,4-oxadiazol-2-yl)-5-(4-chlorophenyl)-1-(2,4-dichlorophenyl)-1H-pyrazol-4-yl)methyl)pyrrolidin-2-one] | 93.9 nM | – |
| CC(C)(C)c1nnc(-c2nn(-c3ccc(Cl)cc3Cl)c(-c3ccc(Cl)cc3)c2CN2CCOC2=O)o1 [Example 307, 3-((3-(5-tert-butyl-1,3,4-oxadiazol-2-yl)-5-(4-chlorophenyl)-1-(2,4-dichlorophenyl)-1H-pyrazol-4-yl)methyl)oxazolidin-2-one] | 125 nM | – |
| CC(=O)SCc1c(-c2nnc(C(C)(C)C)o2)nn(-c2ccc(Cl)cc2Cl)c1-c1ccc(Cl)cc1 [Example 308, S-(3-(5-tert-butyl-1,3,4-oxadiazol-2-yl)-5-(4-chlorophenyl)-1-(2,4-dichlorophenyl)-1H-pyrazol-4-yl)methyl ethanethioate] | 20.7 nM | – |
| CC(C)(C)c1nnc(-c2nn(-c3ccc(Cl)cc3Cl)c(-c3ccc(Cl)cc3)c2CC#N)o1 [Example 310, 2-(3-(5-tert-butyl-1,3,4-oxadiazol-2-yl)-5-(4-chlorophenyl)-1-(2,4-dichlorophenyl)-1H-pyrazol-4-yl)acetonitrile] | 6.12 nM | – |
| CSCc1c(-c2nnc(C(C)(C)C)o2)nn(-c2ccc(Cl)cc2Cl)c1-c1ccc(SC)cc1 [Example 311, 2-tert-butyl-5-(1-(2,4-dichlorophenyl)-5-(4-(methylthio)phenyl)-4-(methylthiomethyl)-1H-pyrazol-3-yl)-1,3,4-oxadiazole] | 25.8 nM | – |
